Assays:
ΔF508-CFTR [1] = target: T1, ΔF508-CFTR (Homo sapiens, UniProt P13569, DEL508-508); assay: CFTR cell surface levels using HRP-tagged ΔF508-CFTR expressing CFBE cells, intrinsic corrector capacity; format: cell-based; design: % Activation: concentration or dose not given beside the values; settings: HRP-tagged ΔF508-CFTR expressing CFBE41o- cells, compound alone (intrinsic corrector capacity), 20 hours at 33° C.; for EC50: read-out: EC50
T1 construct: host or cells: CFBE41o-, doxycycline-inducible
T1 sequence (P13569 with tags, fused parts or gaps DEL508-508): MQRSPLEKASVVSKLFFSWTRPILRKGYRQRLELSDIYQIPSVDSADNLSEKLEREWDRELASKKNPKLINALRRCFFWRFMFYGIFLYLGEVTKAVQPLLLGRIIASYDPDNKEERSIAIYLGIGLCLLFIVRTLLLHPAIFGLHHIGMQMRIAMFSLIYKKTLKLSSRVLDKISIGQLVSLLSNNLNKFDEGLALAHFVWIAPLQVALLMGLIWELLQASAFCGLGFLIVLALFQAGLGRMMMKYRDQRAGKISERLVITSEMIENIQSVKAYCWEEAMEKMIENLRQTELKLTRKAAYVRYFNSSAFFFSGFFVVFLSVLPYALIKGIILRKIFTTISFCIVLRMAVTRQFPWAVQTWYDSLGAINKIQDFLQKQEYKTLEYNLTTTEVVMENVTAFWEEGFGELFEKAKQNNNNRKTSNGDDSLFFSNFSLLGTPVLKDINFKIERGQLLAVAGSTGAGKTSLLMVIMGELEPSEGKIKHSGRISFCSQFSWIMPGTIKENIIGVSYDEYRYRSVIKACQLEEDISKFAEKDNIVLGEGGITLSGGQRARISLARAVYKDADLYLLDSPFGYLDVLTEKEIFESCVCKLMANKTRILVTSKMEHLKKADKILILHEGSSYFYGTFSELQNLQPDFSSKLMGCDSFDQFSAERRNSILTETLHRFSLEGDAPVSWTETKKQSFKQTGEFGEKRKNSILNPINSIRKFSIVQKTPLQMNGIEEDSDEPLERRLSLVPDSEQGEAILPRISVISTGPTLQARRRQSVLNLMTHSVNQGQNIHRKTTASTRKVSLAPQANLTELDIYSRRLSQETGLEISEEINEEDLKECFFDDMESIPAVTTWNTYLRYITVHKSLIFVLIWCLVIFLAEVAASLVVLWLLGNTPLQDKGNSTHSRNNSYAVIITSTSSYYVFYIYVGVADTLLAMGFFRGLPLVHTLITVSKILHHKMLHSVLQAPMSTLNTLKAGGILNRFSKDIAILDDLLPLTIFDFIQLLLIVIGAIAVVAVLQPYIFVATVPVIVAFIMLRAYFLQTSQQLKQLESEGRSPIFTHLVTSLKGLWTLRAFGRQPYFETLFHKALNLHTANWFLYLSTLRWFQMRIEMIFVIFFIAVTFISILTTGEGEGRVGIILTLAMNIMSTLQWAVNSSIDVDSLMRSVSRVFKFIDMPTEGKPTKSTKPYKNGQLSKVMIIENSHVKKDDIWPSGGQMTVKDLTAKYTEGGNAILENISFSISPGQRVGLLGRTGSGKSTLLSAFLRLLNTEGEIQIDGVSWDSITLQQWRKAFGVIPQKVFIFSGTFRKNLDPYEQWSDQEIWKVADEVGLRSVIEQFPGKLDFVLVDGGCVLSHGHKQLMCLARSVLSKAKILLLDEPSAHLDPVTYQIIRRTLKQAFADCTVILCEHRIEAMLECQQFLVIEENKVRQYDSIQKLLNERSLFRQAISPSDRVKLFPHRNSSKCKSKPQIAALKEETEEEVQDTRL
How it was run: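 Surface ΔF508-CFTR was measured as HRP chemiluminescence from an extracellular-loop-4 tag, expressed as percent activity between DMSO and a […] corrector control.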

ΔF508-CFTR [2] = target: T1, ΔF508-CFTR; assay: CFTR cell surface levels using HRP-tagged ΔF508-CFTR expressing CFBE cells, in the presence of a co-corrector; format: cell-based; settings: HRP-tagged ΔF508-CFTR CFBE cells, in the presence of 3 μM co-corrector; for EC50: read-out: EC50
How it was run: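 Chemiluminescent read-out of surface HRP (15 min, dark) after PBS washes. Activity is normalized as 100×(sample−DMSO)/(3 μM co-corrector alone−DMSO).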

In the case of `CC(C)c1nn(-c2ccc(F)cc2)c2nc(C(=O)NS(C)(=O)=O)cc(N3CCN(CC(F)(F)F)CC3)c12` [Compound 266, 1-(4-fluorophenyl)-N-(methanesulfonyl)-3-(propan-2-yl)-4-[4-(2,2,2-trifluoroethyl)piperazin-1-yl]-1H-pyrazolo[3,4-b]pyridine-6-carboxamide], the “% Activation” value (ΔF508-CFTR [1]) is reported as 161.5%, the EC50 (ΔF508-CFTR [1]) is reported as 0.332 µM and the “% Activation” value (ΔF508-CFTR [2]) is reported as 328.87%. For the same compound, the EC50 (ΔF508-CFTR [2]) was 0.231 µM.

`COCC1CCN(c2cc(C(=O)NS(C)(=O)=O)nc3c2c(C(C)C)nn3-c2ccc(=O)n(C)n2)CC1` [Compound 268, N-(methanesulfonyl)-4-[4-(methoxymethyl)piperidin-1-yl]-1-(1-methyl-6-oxo-1,6-dihydropyridazin-3-yl)-3-(propan-2-yl)-1H-pyrazolo[3,4-b]pyridine-6-carboxamide] was tested, and the “% Activation” value (ΔF508-CFTR [1]) was 5.213%, the EC50 (ΔF508-CFTR [1]) was > 10 µM and the “% Activation” value (ΔF508-CFTR [2]) was 122.05%. The EC50 (ΔF508-CFTR [2]) was > 10 µM.

With `COCCS(=O)(=O)NC(=O)c1cc(N2CCN(C(C)C)CC2)c2c(C3CCC3)nn(-c3ccccc3)c2n1` [Compound 271, 3-cyclobutyl-N-(2-methoxyethanesulfonyl)-1-phenyl-4-[4-(propan-2-yl)piperazin-1-yl]-1H-pyrazolo[3,4-b]pyridine-6-carboxamide] the “% Activation” value (ΔF508-CFTR [1]) was 63.905%, the EC50 (ΔF508-CFTR [1]) was 1.95 µM and the “% Activation” value (ΔF508-CFTR [2]) was 260.47%. It also gave an EC50 (ΔF508-CFTR [2]) of 1.02 µM.

For `COCCS(=O)(=O)NC(=O)c1cc(-c2ccc(N3CCC(C#N)CC3)nc2)c2c(OC3CCOC3)nn(-c3ccccc3)c2n1` (stereo not shown) [Compound 275, 4-[6-(4-cyanopiperidin-1-yl)pyridin-3-yl]-N-(2-methoxyethanesulfonyl)-3-[(oxolan-3-yl)oxy]-1-phenyl-1H-pyrazolo[3,4-b]pyridine-6-carboxamide], the “% Activation” value (ΔF508-CFTR [1]) was 138.8%, the EC50 (ΔF508-CFTR [1]) was 0.468 µM and the “% Activation” value (ΔF508-CFTR [2]) was 269.85%. The EC50 (ΔF508-CFTR [2]) was 0.138 µM.

For `COCCS(=O)(=O)NC(=O)c1cc(-c2ccc(N3CCC(C#N)CC3)nc2)c2c(n1)n(-c1ccccc1)nc2[C@H]1C[C@H](C)C1` [Compound 276, 4-[6-(4-cyanopiperidin-1-yl)pyridin-3-yl]-N-(2-methoxyethanesulfonyl)-3-(trans-3-methylcyclobutyl)-1-phenyl-1H-pyrazolo[3,4-b]pyridine-6-carboxamide], the “% Activation” value (ΔF508-CFTR [1]) was 356.7%, the EC50 (ΔF508-CFTR [1]) was 0.779 µM and the “% Activation” value (ΔF508-CFTR [2]) was 417.25%. It also gave an EC50 (ΔF508-CFTR [2]) of 0.0429 µM.

With `CS(=O)(=O)NC(=O)c1cc(-c2ccc(N3CCC(C#N)CC3)nc2)c2c(OC3CCOC3)nn(-c3ccccc3)c2n1` (stereo not shown) [Compound 277, 4-[6-(4-cyanopiperidin-1-yl)pyridin-3-yl]-N-(methanesulfonyl)-3-[(oxolan-3-yl)oxy]-1-phenyl-1H-pyrazolo[3,4-b]pyridine-6-carboxamide] the “% Activation” value (ΔF508-CFTR [1]) was 155.4%, the EC50 (ΔF508-CFTR [1]) was 0.251 µM and the “% Activation” value (ΔF508-CFTR [2]) was 355.4%. For the same compound, the EC50 (ΔF508-CFTR [2]) was 0.127 µM.

For `CC(C)c1nn(-c2cccc(N(C)C)c2)c2nc(C(=O)NS(C)(=O)=O)cc(OCC3CCOCC3)c12` [Compound 278, 1-[3-(dimethylamino)phenyl]-N-(methanesulfonyl)-4-[(oxan-4-yl)methoxy]-3-(propan-2-yl)-1H-pyrazolo[3,4-b]pyridine-6-carboxamide], the “% Activation” value (ΔF508-CFTR [1]) was 233.7%, the EC50 (ΔF508-CFTR [1]) was 0.12 µM and the “% Activation” value (ΔF508-CFTR [2]) was 388.5%. It also gave an EC50 (ΔF508-CFTR [2]) of 0.0883 µM.

`CC(C)c1nn(-c2ccc(F)cc2)c2nc(C(=O)NS(C)(=O)=O)cc(N3CCN(C4CCC4)CC3)c12` [Compound 280, 4-(4-cyclobutylpiperazin-1-yl)-1-(4-fluorophenyl)-N-(methanesulfonyl)-3-(propan-2-yl)-1H-pyrazolo[3,4-b]pyridine-6-carboxamide] was tested, and the “% Activation” value (ΔF508-CFTR [1]) was 121.9%, the EC50 (ΔF508-CFTR [1]) was 1.01 µM and the “% Activation” value (ΔF508-CFTR [2]) was 323.37%. It also gave an EC50 (ΔF508-CFTR [2]) of 1.01 µM.

In the case of `CS(=O)(=O)NC(=O)c1cc(OCCCN2CCOCC2)c2c(C3CCC3)nn(-c3ccccc3)c2n1` [Compound 281, 3-cyclobutyl-N-(methanesulfonyl)-4-[3-(morpholin-4-yl)propoxy]-1-phenyl-1H-pyrazolo[3,4-b]pyridine-6-carboxamide], the “% Activation” value (ΔF508-CFTR [1]) is reported as 230.15%, the EC50 (ΔF508-CFTR [1]) is reported as 0.457 µM and the “% Activation” value (ΔF508-CFTR [2]) is reported as 398.47%. The EC50 (ΔF508-CFTR [2]) was 0.242 µM.

In the case of `CC1(COc2cc(C(=O)NS(C)(=O)=O)nc3c2c(C2CCC2)nn3-c2ccccc2)CC(F)(F)C1` [Compound 282, 3-cyclobutyl-4-[(3,3-difluoro-1-methylcyclobutyl)methoxy]-N-(methanesulfonyl)-1-phenyl-1H-pyrazolo[3,4-b]pyridine-6-carboxamide], the “% Activation” value (ΔF508-CFTR [1]) is reported as 127.8%, the EC50 (ΔF508-CFTR [1]) is reported as 0.129 µM and the “% Activation” value (ΔF508-CFTR [2]) is reported as 379.95%. The EC50 (ΔF508-CFTR [2]) was 0.089 µM.

In the case of `CS(=O)(=O)NC(=O)c1cc(OCC2CCCO2)c2c(C3CCC3)nn(-c3ccccc3)c2n1` (stereo not shown) [Compound 283, 3-cyclobutyl-N-(methanesulfonyl)-4-[(oxolan-2-yl)methoxy]-1-phenyl-1H-pyrazolo[3,4-b]pyridine-6-carboxamide], the “% Activation” value (ΔF508-CFTR [1]) is reported as 141.2%, the EC50 (ΔF508-CFTR [1]) is reported as 0.477 µM and the “% Activation” value (ΔF508-CFTR [2]) is reported as 326.85%. For the same compound, the EC50 (ΔF508-CFTR [2]) was 0.265 µM.

In the case of `CC(C)c1nn(-c2ccc(F)cc2)c2nc(C(=O)NS(C)(=O)=O)cc(OCC3CCOCC3)c12` [Compound 284, 1-(4-fluorophenyl)-N-(methanesulfonyl)-4-[(oxan-4-yl)methoxy]-3-(propan-2-yl)-1H-pyrazolo[3,4-b]pyridine-6-carboxamide], the “% Activation” value (ΔF508-CFTR [1]) is reported as 154.4%, the EC50 (ΔF508-CFTR [1]) is reported as 0.276 µM and the “% Activation” value (ΔF508-CFTR [2]) is reported as 348.7%. It also gave an EC50 (ΔF508-CFTR [2]) of 0.22 µM.

In the case of `CC(C)c1nn(-c2ccc(F)cc2)c2nc(C(=O)NS(C)(=O)=O)cc(OCCC3CCOCC3)c12` [Compound 285, 1-(4-fluorophenyl)-N-(methanesulfonyl)-4-[2-(oxan-4-yl)ethoxy]-3-(propan-2-yl)-1H-pyrazolo[3,4-b]pyridine-6-carboxamide], the “% Activation” value (ΔF508-CFTR [1]) is reported as 125.5%, the EC50 (ΔF508-CFTR [1]) is reported as 0.294 µM and the “% Activation” value (ΔF508-CFTR [2]) is reported as 327.57%. For the same compound, the EC50 (ΔF508-CFTR [2]) was 0.246 µM.

With `COCC1CCN(c2cc(C(=O)NS(=O)(=O)c3cn(C)cn3)nc3c2c(C2CCC2)nn3-c2ccccc2)CC1` [Compound 286, 3-cyclobutyl-4-[4-(methoxymethyl)piperidin-1-yl]-N-(1-methyl-1H-imidazole-4-sulfonyl)-1-phenyl-1H-pyrazolo[3,4-b]pyridine-6-carboxamide] the “% Activation” value (ΔF508-CFTR [1]) was 264%, the EC50 (ΔF508-CFTR [1]) was 0.327 µM and the “% Activation” value (ΔF508-CFTR [2]) was 500.55%. The EC50 (ΔF508-CFTR [2]) was 0.159 µM.

`COCC1CCN(c2cc(C(=O)NS(=O)(=O)c3c(C)noc3C)nc3c2c(C2CCC2)nn3-c2ccccc2)CC1` [Compound 287, 3-cyclobutyl-N-(3,5-dimethyl-1,2-oxazole-4-sulfonyl)-4-[4-(methoxymethyl)piperidin-1-yl]-1-phenyl-1H-pyrazolo[3,4-b]pyridine-6-carboxamide] was tested, and the “% Activation” value (ΔF508-CFTR [1]) was 204.9%, the EC50 (ΔF508-CFTR [1]) was 0.183 µM and the “% Activation” value (ΔF508-CFTR [2]) was 450.9%. For the same compound, the EC50 (ΔF508-CFTR [2]) was 0.128 µM.

`COCC1CCN(c2cc(C(=O)NS(=O)(=O)CCCN(C)C)nc3c2c(C(C)C)nn3-c2ccc(F)cc2)CC1` [Compound 290, N-[3-(dimethylamino)propane-1-sulfonyl]-1-(4-fluorophenyl)-4-[4-(methoxymethyl)piperidin-1-yl]-3-(propan-2-yl)-1H-pyrazolo[3,4-b]pyridine-6-carboxamide] was tested, and the “% Activation” value (ΔF508-CFTR [1]) was 200.4%, the EC50 (ΔF508-CFTR [1]) was 0.617 µM and the “% Activation” value (ΔF508-CFTR [2]) was 382.2%. It also gave an EC50 (ΔF508-CFTR [2]) of 0.536 µM.
